target: Thymidylate kinase (Homo sapiens) (UniProt P23919); assay: In Vitro inhibition of […] (TMPKh)

| SMILES | Ki [µM] |
| --- | --- |
| Cc1cn([C@H]2C[C@H](CF)[C@@H](COP(=O)(O)O)O2)c(=O)[nH]c1=O [Phosphoric acid mono-[3-fluoromethyl-5-(5-methyl-2,4-dioxo-3,4-dihydro-2H-pyrimidin-1-yl)-tetrahydro-furan-2-ylmethyl] ester] | 40 |
| Cc1cn([C@@H]2O[C@H](COP(=O)(O)O)[C@@H](CN)[C@H]2O)c(=O)[nH]c1=O [Phosphoric acid mono-[3-aminomethyl-4-hydroxy-5-(5-methyl-2,4-dioxo-3,4-dihydro-2H-pyrimidin-1-yl)-tetrahydro-furan-2-ylmethyl] ester] | 280 |
| Cc1cn([C@H]2C[C@H](CN)[C@@H](CO)O2)c(=O)[nH]c1=O [1-(4-Aminomethyl-5-hydroxymethyl-tetrahydro-furan-2-yl)-5-methyl-1H-pyrimidine-2,4-dione] | 220 |
| Cc1cn([C@H]2C[C@H](CF)[C@@H](CO)O2)c(=O)[nH]c1=O [1-(4-Fluoromethyl-5-hydroxymethyl-tetrahydro-furan-2-yl)-5-methyl-1H-pyrimidine-2,4-dione] | 970 |
| Cc1cn([C@H]2C[C@H](CN=[N+]=[N-])[C@@H](COP(=O)(O)O)O2)c(=O)[nH]c1=O [Phosphoric acid mono-[3-azidomethyl-5-(5-methyl-2,4-dioxo-3,4-dihydro-2H-pyrimidin-1-yl)-tetrahydro-furan-2-ylmethyl] ester] | 32 |
| Cc1cn([C@H]2C[C@H](CO)[C@@H](CO)O2)c(=O)[nH]c1=O [1-(4,5-Bis-hydroxymethyl-tetrahydro-furan-2-yl)-5-methyl-1H-pyrimidine-2,4-dione] | 420 |
| Cc1cn([C@H]2C[C@H](CN)[C@@H](COP(=O)(O)O)O2)c(=O)[nH]c1=O [Phosphoric acid mono-[3-aminomethyl-5-(5-methyl-2,4-dioxo-3,4-dihydro-2H-pyrimidin-1-yl)-tetrahydro-furan-2-ylmethyl] ester] | 4.7 |
| Cc1cn([C@H]2C[C@H](CN=[N+]=[N-])[C@@H](CO)O2)c(=O)[nH]c1=O [1-(4-Azidomethyl-5-hydroxymethyl-tetrahydro-furan-2-yl)-5-methyl-1H-pyrimidine-2,4-dione] | 1040 |
| Cc1cn([C@@H]2O[C@H](CO)[C@@H](CN)[C@H]2O)c(=O)[nH]c1=O [1-(4-Aminomethyl-3-hydroxy-5-hydroxymethyl-tetrahydro-furan-2-yl)-5-methyl-1H-pyrimidine-2,4-dione] | 110 |
| Cc1cn([C@H]2C[C@H](CO)[C@@H](COP(=O)(O)O)O2)c(=O)[nH]c1=O [Phosphoric acid mono-[3-hydroxymethyl-5-(5-methyl-2,4-dioxo-3,4-dihydro-2H-pyrimidin-1-yl)-tetrahydro-furan-2-ylmethyl] ester] | 43.5 |
